Read-outs that look alike come from different tables or passages of the source.
How the values were obtained:
CYP106A2 [1] = target: T1, CYP106A2 (Priestia megaterium, UniProt Q06069); experiment: NADPH consumption of cells displaying CYP106A2 in the presence of imipramine (N-demethylation); assay type: biochemical, E. coli BL21(DE3); parameters: expressed in transfected cells; host or cells: E. coli BL21(DE3) pET-CYP13, induced with 1 mM IPTG; details: imipramine 2.5 μM, NADPH 200 μM, BL21(DE3) pETCYP13 cells OD578=2.5, Adx and AdR added
Experimental: The cells were prepared as described in Example 1. Redox equivalents are transferred from NADPH via the proteins AdR and Adx to the converting enzyme.
The reaction mixture contained in a total volume of 0.2 mL Hepes buffer (50 mM, 0.05% Tween20, pH 7.4), imipramine (2.5 μM), Adx ([…]), AdR (0.5 μM), NADPH (200 μM) and cells of E. coli BL21(DE3) or BL21(DE3) pETCYP13 corresponding to an OD578=2.5.
The by-product formalin (cf. FIG. 17) has been photometrically identified to be produced by the cells displaying CYP106A2, but not in the control cells (data not shown).

CYP106A2 [2] = target: T1, CYP106A2
[3] = E. coli BL21(DE3) pETCYP13 whole cells, induced with 1 mM IPTG, Adx and AdR added

## CN(C)CCCN1c2ccccc2CCc2ccccc21 [imipramine]
CYP106A2 [1]
  conversion indicated by NADPH consumption difference versus control cells: conversion of imipramine into desipramine

## CC(C)C1=CC2=CC[C@@H]3[C@](C)(CCC[C@@]3(C)C(=O)O)[C@H]2CC1 [abietic acid]
CYP106A2 [2]; [3]
  product formation from substrate (HPLC product peak): a product occurred at the expected retention time

## C[C@]12CC[C@H]3[C@@H](CCC4=CC(=O)CC[C@@]43C)[C@@H]1CC[C@@H]2C(=O)CO [11-deoxycorticosterone]
CYP106A2 [2]; BL21(DE3) pETCYP13 whole cells, 1 mM IPTG, without addition of Adx
  product formation from substrate (HPLC product peak): no product peak
CYP106A2 [2]; [3]
  product formation from substrate (HPLC product peak): resulted in a product peak
CYP106A2 [2]; TolC negative strain JW5503-1 (DE3) pETCYP13 compared with TolC positive BL21(DE3) pETCYP13, IPTG induced
  amount of product 15β-deoxycorticosterone (HPLC): decreased
